Measured values: paper PMC11320742, “Radiosynthesis and Evaluation of 11C-Labeled Isoindolone-Based Positive Allosteric Modulators for Positron Emission Tomography Imaging of Metabotropic Glutamate Receptor 2” (ACS Pharmacology & Translational Science, 2024)

Experiments:
mGluR2 [1] = target: T1, mGluR2 (Rattus norvegicus, UniProt P31421); experiment: In situ [35S]GTPγS autoradiography in rat brain tissue; type: biochemical; conditions: in the presence of agonist LY379268
T1 construct: the brain sections of rat or cynomolgus monkey brains in 20 μm thickness; from tissue; host or cells: rat brain sections
Experimental: (§1) Encouraged by the promising ligand–protein binding ability of AZ12559322, in vitro autoradiography (ARG) studies were conducted on rat brain tissues to assess the binding specificity of [^3H]AZ12559322. Consistent with previous reports of the regional mGluR2 expression in the rat brain,[45] […] Subsequently, in vitro ARG studies with brain regions from cynomolgus monkeys were conducted to confirm the specificity in higher species. […] Subsequent immunohistochemical analyses verified that […] was binding to the regions with high expression of mGluR2 (see Figure S2 in the Supporting Information). Altogether, these studies indicated high mGluR2 in vitro binding specificity of AZ12559322 on rat and NHP brain tissue sections and positive allosteric mechanism of action.
(§2) The in situ GTPγS ARG studies in the rat and NHP brain tissues were conducted according to previous reports.[54] Briefly, […] thick brain tissue sections were incubated twice in assay buffer, pH 7.5 for 10 min at 25 °C and once in assay buffer with 2 mM GDP for 15 min at 25 °C. Slides were then incubated in an assay buffer containing 0.04 nM [^35S]GTPgS in the presence or absence of LY379268 and AZD8529 for 2 h at 25 °C. The incubation was stopped by washing twice for 3 min in ice-cold 50 mM Tris–HCl and a quick dip in ice-cold distilled water. […] Films were developed by standard techniques, digitized, and analyzed.

mGluR2 [2] = experiment: In situ [35S]GTPγS autoradiography in NHP brain tissue; type: biochemical; conditions: in the presence of agonist LY379268
Experimental: as §1, §2

mGluR2 [3] = target: T1, mGluR2; experiment: In vitro autoradiography of rat brain tissue with [3H]AZ12559322 (baseline and blockade); type: binding; conditions: baseline; high in prefrontal cortex, cerebral cortex, hippocampus; low in thalamus
Experimental: as §1
Figure 5 In vitro autoradiography of rat brain tissue with [^3H]AZ12559322. (A) Autoradiograms after incubation with either [^3H]AZ12559322 only (baseline) or 10 μM AZ12522721 (blockade). (B) Quantitative analyses of the autoradiograms under baseline and blocking conditions (n = 4). ***p ≤ 0.001, ns = nonsignificant.
(§3) The tritium-labeled ligand [^3H]AZ12559322 for ARG studies was prepared by AstraZeneca.[23] Briefly, the brain sections of rat or cynomolgus monkey brains in 20 μm thickness were warmed to room temperature in a vacuum chamber over 3 h on the day of the experiment.[52] […]

mGluR2 [4] = experiment: PET imaging in NHP; type: in vivo; conditions: cynomolgus monkey, IV injection, baseline
Experimental: With all three radioligands in hand, we sought to evaluate the feasibility of these radioligands for quantifying mGluR2 PAM occupancy in the NHP brain. PET imaging studies of [^11C]AZ12559322, [^11C]AZ12592068, and [^11C]AZ12588953 were performed in a cynomolgus monkey. Radioactivity was acquired for 120 min after IV injection of the respective radioligand. […] Further structural modification of these isoindolone derivatives is necessary to enhance brain exposure and provide a suitable radioligand for in vivo imaging.
PET imaging studies were conducted in one anesthetized healthy cynomolgus monkey and are fully detailed in Dahl et al.[53] The study was approved by the Stockholm Animal Research Ethical Committee (Dnr. N245/04). […] The head was immobilized with a fixation device, and body temperature was maintained by Bair Hugger model 505 (Arizant Healthcare, MN, USA) and continuously monitored by an esophageal thermometer. ECG, heart rate, blood pressure, respiratory rate, and oxygen saturation were continuously monitored throughout the experiments. […] Radioactivity in the brain was measured continuously for 123 min using the high-resolution research tomograph (HRRT; Siemens Molecular Imaging, Knoxville, TN, USA) according to a preprogrammed series of 34 frames.

mGluR2 [5] = experiment: In vitro autoradiography of NHP prefrontal cortex with [3H]AZ12559322 (blocking); type: binding, cynomolgus monkey; conditions: blocker 5 μM, n = 2
Experimental: as §1
Figure 6 In vitro autoradiography and quantitative analyses of NHP prefrontal cortex with [^3H]AZ12559322 (n = 2). Total binding and nonspecific binding in the presence of 5 μM of LY-487379 or AZD8418. *p < 0.05.
as §3, with “experiment.[52] All sections were incubated in 50 mM Tris HCl, 5 mM MgCl2, and 0.9% NaCl (pH 7.4) for 5 min at room temperature.” for “experiment.[52]”

mGluR2 [6] = target: T2, mGluR2 (Homo sapiens, UniProt Q14416); experiment: Saturation binding of tritiated ligands on CHO membranes stably expressing mGluR2; conditions: for Ki: mGluR2, CHO membranes; for Kd: saturation binding of tritiated ligand, CHO membranes expressing mGluR2
T2 construct: expressed in transfected cells; host or cells: CHO
Experimental: (§4) To determine the binding affinities, saturation binding experiments of the corresponding tritiated ligands were conducted on CHO membranes stably expressing mGluR2. […] Multiparameter optimization (MPO) is a valuable tool to evaluate the BBB permeability of drug candidates. […] To investigate the selectivity of AZ12559322 for mGluR2, further counter-screening of AZ12559322 was conducted, and the results are detailed in Figure 3C.

mGluR2 [7] = target: T1, mGluR2; experiment: In vitro ARG of [3H]AZ12559322 on rat brain tissues (binding data, Figure S1); conditions: determined by in vitro ARG of [3H]AZ12559322 on rat brain tissues
Experimental: To determine the binding affinities, saturation binding experiments of the corresponding tritiated ligands were conducted on CHO membranes stably expressing mGluR2. […] The blood–brain barrier permeability (log BB) values of 3a–3c were predicted in the range of −0.14 to −0.51. Multiparameter optimization (MPO) is a valuable tool to evaluate the BBB permeability of drug candidates. In general, CNS MPO scores on a scale between 0 and 6, and the score value ≥4.0 is highly desirable. […] Therefore, AZ12559322 was selected as the most promising mGluR2 PAM for further ADME profiling. To investigate the selectivity of AZ12559322 for mGluR2, further counter-screening of AZ12559322 was conducted, and the results are detailed in Figure 3C.
as §3, with “experiment.[52] All sections were incubated in 50 mM Tris HCl, 5 mM MgCl2, and 0.9% NaCl (pH 7.4) for 5 min at room temperature. The brain sections were dried and incubated with [^3H]AZ12559322 in the above buffer for 30 min at ambient temperature.” for “experiment.[52]”

mGluR1 = mGluR1 (Homo sapiens, UniProt Q13255); experiment: Counter-screening, mGluR family selectivity; type: biochemical
Experimental: as §4

mGluR2 [8] = target: T2, mGluR2; experiment: Counter-screening, mGluR family selectivity; type: biochemical
Experimental: as §4

mGluR3 = mGluR3 (Homo sapiens, UniProt Q14832); experiment: Counter-screening, mGluR family selectivity; type: biochemical
Experimental: as §4

mGluR4 = mGluR4 (Homo sapiens, UniProt Q14833); experiment: Counter-screening, mGluR family selectivity; type: biochemical
Experimental: as §4

mGluR5 = mGluR5 (Homo sapiens, UniProt P41594); experiment: Counter-screening, mGluR family selectivity; type: biochemical
Experimental: as §4

mGluR6 = mGluR6 (Homo sapiens, UniProt O15303); experiment: Counter-screening, mGluR family selectivity; type: biochemical
Experimental: as §4

mGluR7 = mGluR7 (Homo sapiens, UniProt Q14831); experiment: Counter-screening, mGluR family selectivity; type: biochemical
Experimental: as §4

mGluR8 = mGluR8 (Homo sapiens, UniProt O00222); experiment: Counter-screening, mGluR family selectivity; type: biochemical
Experimental: as §4

pKa = type: physicochemical
Experimental: as §4

hERG channel = hERG channel (Homo sapiens, UniProt Q12809); experiment: hERG channel inhibition; type: biochemical
CYP1A2 = target: T3, CYP1A2 (Homo sapiens, UniProt P05177); experiment: CYP inhibition; type: in vitro ADME
T3 sequence (P05177 1-516): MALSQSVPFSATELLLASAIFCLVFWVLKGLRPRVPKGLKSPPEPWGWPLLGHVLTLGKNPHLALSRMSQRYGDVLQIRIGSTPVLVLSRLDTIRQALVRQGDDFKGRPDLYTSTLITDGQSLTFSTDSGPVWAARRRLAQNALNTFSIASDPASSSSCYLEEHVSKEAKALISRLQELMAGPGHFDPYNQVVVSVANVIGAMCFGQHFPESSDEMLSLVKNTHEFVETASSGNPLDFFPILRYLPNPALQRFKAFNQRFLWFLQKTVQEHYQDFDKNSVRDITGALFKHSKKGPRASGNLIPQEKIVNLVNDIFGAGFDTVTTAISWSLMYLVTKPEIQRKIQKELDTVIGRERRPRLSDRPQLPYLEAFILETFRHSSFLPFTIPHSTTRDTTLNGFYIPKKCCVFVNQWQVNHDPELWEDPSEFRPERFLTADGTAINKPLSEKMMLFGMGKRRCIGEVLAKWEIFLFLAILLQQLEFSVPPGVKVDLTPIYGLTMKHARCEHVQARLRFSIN

CYP2C19 = CYP2C19 (Homo sapiens, UniProt P33261); experiment: CYP inhibition; type: in vitro ADME
CYP2C9 = CYP2C9 (Homo sapiens, UniProt P11712); experiment: CYP inhibition; type: in vitro ADME
CYP2D6 = CYP2D6 (Homo sapiens, UniProt P10635); experiment: CYP inhibition; type: in vitro ADME
CYP3A4 = CYP3A4 (Homo sapiens, UniProt P08684); experiment: CYP inhibition; type: in vitro ADME
Chain of CYP3A4 (P08684 whole entry): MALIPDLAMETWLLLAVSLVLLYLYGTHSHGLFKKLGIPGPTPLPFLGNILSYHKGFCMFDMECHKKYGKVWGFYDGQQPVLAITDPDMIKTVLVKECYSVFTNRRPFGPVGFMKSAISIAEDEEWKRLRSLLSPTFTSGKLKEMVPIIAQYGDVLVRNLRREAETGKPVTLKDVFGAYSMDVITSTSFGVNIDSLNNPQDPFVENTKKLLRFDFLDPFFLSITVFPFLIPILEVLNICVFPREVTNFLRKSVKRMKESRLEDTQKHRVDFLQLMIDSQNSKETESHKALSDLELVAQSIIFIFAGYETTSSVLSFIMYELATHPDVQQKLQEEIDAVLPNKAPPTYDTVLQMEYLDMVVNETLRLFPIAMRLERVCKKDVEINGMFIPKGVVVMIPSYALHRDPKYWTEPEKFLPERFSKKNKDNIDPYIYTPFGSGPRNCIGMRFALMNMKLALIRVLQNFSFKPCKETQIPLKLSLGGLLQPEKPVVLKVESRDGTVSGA

T2 sequence (Q14416 19-872): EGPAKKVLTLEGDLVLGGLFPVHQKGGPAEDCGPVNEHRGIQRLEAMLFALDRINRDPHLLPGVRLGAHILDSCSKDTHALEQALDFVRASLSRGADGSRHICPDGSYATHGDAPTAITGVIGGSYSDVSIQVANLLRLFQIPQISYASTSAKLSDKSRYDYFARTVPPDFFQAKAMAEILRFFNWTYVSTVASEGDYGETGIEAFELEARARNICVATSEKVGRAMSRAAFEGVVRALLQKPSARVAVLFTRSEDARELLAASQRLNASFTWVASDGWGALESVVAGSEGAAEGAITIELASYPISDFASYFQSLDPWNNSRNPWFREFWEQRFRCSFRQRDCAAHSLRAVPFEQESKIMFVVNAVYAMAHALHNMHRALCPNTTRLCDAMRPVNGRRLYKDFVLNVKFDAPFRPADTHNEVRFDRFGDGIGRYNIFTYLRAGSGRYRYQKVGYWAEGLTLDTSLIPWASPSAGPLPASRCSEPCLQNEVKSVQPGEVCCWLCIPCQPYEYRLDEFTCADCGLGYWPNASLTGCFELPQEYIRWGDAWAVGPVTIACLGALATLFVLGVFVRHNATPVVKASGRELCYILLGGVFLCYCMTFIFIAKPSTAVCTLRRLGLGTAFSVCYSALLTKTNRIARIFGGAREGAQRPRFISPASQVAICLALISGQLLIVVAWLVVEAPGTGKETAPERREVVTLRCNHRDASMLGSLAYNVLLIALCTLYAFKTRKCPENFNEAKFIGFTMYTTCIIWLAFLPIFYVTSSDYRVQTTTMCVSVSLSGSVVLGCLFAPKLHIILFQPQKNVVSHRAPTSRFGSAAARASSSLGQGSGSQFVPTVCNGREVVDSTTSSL
T1 sequence (P31421 19-872): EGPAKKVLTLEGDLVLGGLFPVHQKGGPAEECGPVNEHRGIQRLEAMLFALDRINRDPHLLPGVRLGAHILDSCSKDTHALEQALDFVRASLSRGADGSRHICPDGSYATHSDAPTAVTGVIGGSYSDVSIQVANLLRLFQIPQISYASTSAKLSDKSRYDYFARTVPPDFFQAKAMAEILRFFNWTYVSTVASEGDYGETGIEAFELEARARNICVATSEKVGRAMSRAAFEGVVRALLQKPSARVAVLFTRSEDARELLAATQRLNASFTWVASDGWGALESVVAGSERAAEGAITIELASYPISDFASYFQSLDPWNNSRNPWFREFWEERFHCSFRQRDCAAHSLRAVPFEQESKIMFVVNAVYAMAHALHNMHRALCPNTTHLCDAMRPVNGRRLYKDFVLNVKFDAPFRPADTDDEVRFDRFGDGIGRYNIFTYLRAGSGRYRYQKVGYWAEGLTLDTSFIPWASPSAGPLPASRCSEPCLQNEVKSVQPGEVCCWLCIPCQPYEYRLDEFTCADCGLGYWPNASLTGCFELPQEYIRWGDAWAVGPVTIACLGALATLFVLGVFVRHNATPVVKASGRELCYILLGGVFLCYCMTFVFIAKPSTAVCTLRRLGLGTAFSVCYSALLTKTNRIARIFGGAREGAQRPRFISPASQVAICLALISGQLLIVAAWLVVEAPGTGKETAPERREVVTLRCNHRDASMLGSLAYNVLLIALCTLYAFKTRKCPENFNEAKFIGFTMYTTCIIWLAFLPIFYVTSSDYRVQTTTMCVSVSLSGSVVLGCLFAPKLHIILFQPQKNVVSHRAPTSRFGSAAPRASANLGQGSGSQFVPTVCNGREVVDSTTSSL
Chain of CYP2C9 (P11712 whole entry): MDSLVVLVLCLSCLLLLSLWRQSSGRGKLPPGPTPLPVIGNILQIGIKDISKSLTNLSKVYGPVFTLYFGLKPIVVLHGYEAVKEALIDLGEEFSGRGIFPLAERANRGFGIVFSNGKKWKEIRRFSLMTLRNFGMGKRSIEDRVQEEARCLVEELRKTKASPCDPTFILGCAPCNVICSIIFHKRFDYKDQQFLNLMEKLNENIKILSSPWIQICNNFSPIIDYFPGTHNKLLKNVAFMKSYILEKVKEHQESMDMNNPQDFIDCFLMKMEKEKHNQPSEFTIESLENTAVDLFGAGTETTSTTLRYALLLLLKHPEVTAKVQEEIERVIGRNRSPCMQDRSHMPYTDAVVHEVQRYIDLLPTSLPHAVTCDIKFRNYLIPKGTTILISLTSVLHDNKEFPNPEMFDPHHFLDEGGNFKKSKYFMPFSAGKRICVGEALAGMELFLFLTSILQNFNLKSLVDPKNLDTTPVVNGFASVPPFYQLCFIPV
Chain of CYP2D6 (P10635 whole entry): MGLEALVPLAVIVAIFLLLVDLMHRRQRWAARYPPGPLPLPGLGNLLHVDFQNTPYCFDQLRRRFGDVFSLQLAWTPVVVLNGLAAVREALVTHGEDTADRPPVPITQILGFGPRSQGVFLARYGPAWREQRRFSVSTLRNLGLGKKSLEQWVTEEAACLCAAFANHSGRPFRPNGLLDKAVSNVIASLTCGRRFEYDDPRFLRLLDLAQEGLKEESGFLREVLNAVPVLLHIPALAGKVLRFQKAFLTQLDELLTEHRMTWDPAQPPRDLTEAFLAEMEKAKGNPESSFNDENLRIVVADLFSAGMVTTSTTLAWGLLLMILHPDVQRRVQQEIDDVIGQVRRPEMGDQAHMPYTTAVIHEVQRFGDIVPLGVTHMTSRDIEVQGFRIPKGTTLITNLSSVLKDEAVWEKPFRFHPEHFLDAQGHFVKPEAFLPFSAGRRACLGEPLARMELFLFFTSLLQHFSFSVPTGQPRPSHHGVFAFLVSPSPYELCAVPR
Chain of CYP2C19 (P33261 whole entry): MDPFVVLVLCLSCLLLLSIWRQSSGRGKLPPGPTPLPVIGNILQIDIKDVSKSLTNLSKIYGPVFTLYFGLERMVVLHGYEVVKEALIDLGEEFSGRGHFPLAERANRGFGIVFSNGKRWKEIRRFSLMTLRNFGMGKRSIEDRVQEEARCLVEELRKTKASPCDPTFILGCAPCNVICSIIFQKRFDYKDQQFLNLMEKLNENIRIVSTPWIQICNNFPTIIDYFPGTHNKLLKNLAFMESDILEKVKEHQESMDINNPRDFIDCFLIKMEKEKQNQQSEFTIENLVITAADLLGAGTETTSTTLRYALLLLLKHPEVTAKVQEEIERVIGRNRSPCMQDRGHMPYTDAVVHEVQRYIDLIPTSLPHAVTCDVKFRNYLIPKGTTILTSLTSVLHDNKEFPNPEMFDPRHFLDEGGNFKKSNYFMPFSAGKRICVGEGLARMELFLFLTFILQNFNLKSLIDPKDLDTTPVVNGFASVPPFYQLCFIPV
Chain of mGluR5 (P41594 21-1212): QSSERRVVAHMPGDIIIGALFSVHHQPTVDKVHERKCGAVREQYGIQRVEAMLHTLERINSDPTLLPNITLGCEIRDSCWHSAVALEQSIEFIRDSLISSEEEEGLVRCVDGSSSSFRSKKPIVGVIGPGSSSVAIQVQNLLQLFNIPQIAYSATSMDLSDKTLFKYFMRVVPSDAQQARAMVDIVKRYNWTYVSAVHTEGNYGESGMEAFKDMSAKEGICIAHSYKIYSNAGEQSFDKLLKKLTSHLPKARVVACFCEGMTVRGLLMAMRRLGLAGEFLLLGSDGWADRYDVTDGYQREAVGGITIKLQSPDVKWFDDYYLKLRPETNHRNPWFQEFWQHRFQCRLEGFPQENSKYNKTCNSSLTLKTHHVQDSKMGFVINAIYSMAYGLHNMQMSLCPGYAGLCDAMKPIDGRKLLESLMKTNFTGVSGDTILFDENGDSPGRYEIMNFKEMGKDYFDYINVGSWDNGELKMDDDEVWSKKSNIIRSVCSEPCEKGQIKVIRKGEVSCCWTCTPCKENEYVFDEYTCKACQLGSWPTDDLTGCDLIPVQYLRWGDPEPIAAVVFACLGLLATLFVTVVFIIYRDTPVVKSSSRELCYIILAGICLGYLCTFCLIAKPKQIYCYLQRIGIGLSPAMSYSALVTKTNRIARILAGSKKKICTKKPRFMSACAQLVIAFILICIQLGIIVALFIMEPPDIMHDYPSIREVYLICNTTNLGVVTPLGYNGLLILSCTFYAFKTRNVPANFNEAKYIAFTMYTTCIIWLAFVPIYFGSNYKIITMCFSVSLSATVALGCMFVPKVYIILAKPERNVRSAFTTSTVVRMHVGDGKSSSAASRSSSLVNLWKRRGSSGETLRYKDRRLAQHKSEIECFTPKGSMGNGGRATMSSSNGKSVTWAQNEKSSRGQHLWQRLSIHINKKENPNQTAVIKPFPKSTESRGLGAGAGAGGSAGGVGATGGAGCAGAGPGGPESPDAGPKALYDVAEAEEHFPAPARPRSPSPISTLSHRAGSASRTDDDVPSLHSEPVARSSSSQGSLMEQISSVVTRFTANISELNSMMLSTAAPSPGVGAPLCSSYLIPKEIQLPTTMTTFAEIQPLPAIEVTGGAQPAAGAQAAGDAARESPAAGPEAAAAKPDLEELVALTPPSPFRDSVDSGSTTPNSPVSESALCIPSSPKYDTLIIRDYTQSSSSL

Cc1cc(-c2nc(CN3CCNCC3)no2)cc2c1C(=O)N(Cc1ccc(OC(F)(F)F)cc1)C2 [AZD8529]
Modulation in in situ GTPγS ARG (mGluR2 [1]): positive modulation
Modulation in in situ GTPγS ARG (mGluR2 [2]): positive modulation

Cc1cc(-c2cccc(NS(C)(=O)=O)c2)cc2c1C(=O)N(C(C)C)C2 [[^3H]AZ12559322, [^3H]-N-[3-(2-Isopropyl-7-methyl-1-oxo-2,3-dihydro-1H-isoindol-5-yl)phenyl]methanesulfonamide]
Regional distribution of radioligand binding in rat brain sections (mGluR2 [3]): heterogeneous distribution

CC(C)N1Cc2cc(-c3cccc(NS(C)(=O)=O)c3)cc([11CH3])c2C1=O [[^11C]AZ12559322]
Brain exposure in PET imaging (mGluR2 [4]): low brain uptake

C[C@@H](C1CC1)N1Cc2cc(-c3cc(C(=O)N(C)C)no3)cc(Cl)c2C1=O [AZD8418]
Diminished [3H]AZ12559322 binding in NHP prefrontal cortex (mGluR2 [5]): 40–45%

Cc1cc(-c2cccc(NS(C)(=O)=O)c2)cc2c1C(=O)N([C@@H](C)C(F)(F)F)C2 [AZ12592068, (S)-N-(3-(2-(1,1,1-trifluoropropan-2-yl)-7-methyl-1-oxoisoindolin-5-yl)phenyl)methanesulfonamide]
Ki (mGluR2 [6]): 0.71 nM
Kd (mGluR2 [6]): 2 nM

COc1ccccc1Oc1ccc(N(Cc2cccnc2)S(=O)(=O)CC(F)(F)F)cc1 [LY-487379]
Diminished [3H]AZ12559322 binding in NHP prefrontal cortex (mGluR2 [5]): 40–45%

Cc1cc(-c2cccc(NS(C)(=O)=O)c2)cc2c1C(=O)N(C(C)C)C2 [AZ12559322, N-[3-(2-isopropyl-7-methyl-1-oxo-2,3-dihydro-1H-isoindol-5-yl)phenyl]methanesulfonamide]
Ki (mGluR2 [6]): 2.68 nM
Kd (mGluR2 [6]): 11 nM
Specific binding% (mGluR2 [6]; specific binding to mGluR2 in vitro): 89%
Kd (mGluR2 [7]): 1.31 nM
IC50 (mGluR1): > 30000 nM
IC50 (mGluR2 [8]): 4.7 nM
Selectivity for mGluR2 over all other mGluR subtypes (mGluR2 [8]; against all other mGluRs): > 4000 fold
IC50 (mGluR3): > 25000 nM
IC50 (mGluR4): > 23600 nM
IC50 (mGluR5): > 30000 nM
IC50 (mGluR6): > 30000 nM
IC50 (mGluR7): > 30000 nM
IC50 (mGluR8): > 20300 nM
pKa (pKa): 8.46
IC50 (hERG channel): 9350 nM
inhibition at 10 µM (CYP1A2): 37%
inhibition at 1 µM (CYP2C19; at 1 μM): 13%
inhibition at 10 µM (CYP2C19; at 10 μM): 51%
inhibition at 1 µM (CYP2C9; at 1 μM): 8%
inhibition at 10 µM (CYP2C9; at 10 μM): 46%
inhibition at 1 µM (CYP2D6; at 1 μM): 0%
inhibition at 10 µM (CYP2D6; at 10 μM): 11%
inhibition at 1 µM (CYP3A4; at 1 μM): 0%
inhibition at 10 µM (CYP3A4; at 10 μM): 12%

Cc1cc(-c2cccc(NS(C)(=O)=O)c2)cc2c1C(=O)N(C1CCC1)C2 [AZ12588953, N-(3-(2-cyclobutyl-7-methyl-1-oxoisoindolin-5-yl)phenyl)methanesulfonamide]
Ki (mGluR2 [6]): 2.02 nM
Kd (mGluR2 [6]): 4.7 nM
